Laboratory results from patent US20020082263A1, “Heterocycle derivatives as PPAR-gamma agonists” (priority 2000, published 2002).
pEC50: −log10 of the molar value.

Key:
[1] = test system: db/db mice (C578BL/KsJ-db/db Jcl); assay: Effect on serum glucose and serum insulin in db/db mice; format: in vivo, mouse; conditions: oral; for Serum Glucose (% reduction) / Serum Insulin (% reduction): blood 1.5 h after last dose vs pretreatment blood, mean ± SEM
Method: Compounds prepared in accordance with Examples 8 and 36 were evaluated for their effect on serum glucose and serum insulin in db/db mice (C578BL/KsJ-db/db Jcl). The compounds were dissolved in a vehicle consisting of 2% Tween80 in distilled water and administered orally. Dosage volume was 10 ml/kg body weight. All aspects of the work including experimentation and disposal of the animals was performed in general accordance with the International Guiding Principles for Biomedical Research Involving Animals (CIOMS Publication No. ISBN 92 90360194, 1985). Glucose-HA Assay kits (Wako, Japan) were used for determination of serum glucose and ELISA Mouse Insulin Assay kits (SPI bio, France) were utilized for determination of insulin. The positive control was troglitazone (Helios Pharmaceutical, Louisville, Ky.).
The animals were divided into twenty groups of four animals each. The animals weighed 52±5 gms at age 8-10 weeks. During the experiment the animals were provided free access to laboratory chow (Fwusow Industry Co., Taiwan) and water
Prior to any treatment a blood sample (pretreatment blood) was taken from each animal. Four groups of animals, the vehicle groups, received only doses of the vehicle. Each of the vehicle groups received of 100, 30, 10 or 1 ml/kg body weight of the vehicle orally. […] The compound of Example 8 was administered orally as a solution (10 ml/kg body weight in tween 80/water) to four groups of animals with each group receiving a different dose of the compound. The dosage rates were […] body weight with only one dosage rate administered to each group. […] The vehicle, positive control and test compound solutions were administered to the groups immediately, 24 hours and 48 hours after drawing the pretreatment blood. Blood was withdrawn (post treatment blood) 1.5 hours after administration of the last dose.
The serum glucose levels of the blood samples was determined enzymatically (Mutaratose-GOD) and the insulin levels by ELISA (mouse insulin assay kit). The mean ±SEM of each group was calculated and the percent inhibition of serum glucose and insulin was obtained by comparison between pretreatment blood and post treatment blood. The percentage of reduction of the serum glucose and insulin levels in the post treatment blood relative to the pretreatment blood was determined and the Unpaired students t test was applied for the comparison between the control and test solution groups and the vehicle group. A significant difference was considered at P<0.05.

[2] = target: T1, PPAR-gamma (Homo sapiens, UniProt P37231); assay: Reporter gene assay in transfected HepG2 cells: transcriptional activation of a PPRE via a PPAR-gamma mediated pathway; format: cell-based; conditions: transfected human hepatoma (HepG2) cells, 36-48 h exposure, reporter gene activity
T1 construct: host or cells: HepG2 (human hepatoma), transfected
T1 sequence (P37231 1-505): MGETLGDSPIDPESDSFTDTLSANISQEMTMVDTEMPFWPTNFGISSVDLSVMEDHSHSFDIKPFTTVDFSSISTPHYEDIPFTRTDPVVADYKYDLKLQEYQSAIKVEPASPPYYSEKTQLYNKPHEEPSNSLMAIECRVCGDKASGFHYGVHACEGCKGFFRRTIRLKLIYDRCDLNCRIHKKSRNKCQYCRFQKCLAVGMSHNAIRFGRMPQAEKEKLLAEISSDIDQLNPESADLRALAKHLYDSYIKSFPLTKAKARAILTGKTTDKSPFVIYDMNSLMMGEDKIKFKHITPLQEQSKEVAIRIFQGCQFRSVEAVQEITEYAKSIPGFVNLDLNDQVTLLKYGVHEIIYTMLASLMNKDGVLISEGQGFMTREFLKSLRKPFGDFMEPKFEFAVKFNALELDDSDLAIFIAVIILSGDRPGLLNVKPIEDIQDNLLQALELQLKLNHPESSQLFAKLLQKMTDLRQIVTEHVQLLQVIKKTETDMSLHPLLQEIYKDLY
Method: A reporter gene assay utilizing transfected human hepatoma (HepG2) cells is used to screen for compounds that transcriptionally activate a PPRE via a PPAR-gamma mediated pathway. Cells are exposed to experimental compounds dissolved in DMSO for 36-48 h prior to determination of reporter gene activity. 15dPGJ2 (2 μM) is used as positive control and vehicle (DMSO) is used as a negative control.

[3] = 100 mg/kg body weight, P<0.01, unpaired t test

## COc1cc(CN2C[C@@H](CC(=O)NCC3CCCO3)N(C(=O)NC3CCCCC3)[C@@H](CC(C)C)C2=O)cc(OC)c1 (stereo partly drawn) [Example 8, N-Tetrahydrofurfuryl (R)-[1-cyclohexylcarbamoyl-4-(3,5-dimethoxybenzyl)-6-(S)-isobutyl-5-oxo-piperazin-2-yl]-acetamide]
[1]; 1 mg/kg at 0, 24 and 48 h
  Serum Glucose (% reduction): 9 ± 8%
  Serum Insulin (% reduction): 3 ± 7%
[1]; 3 mg/kg at 0, 24 and 48 h
  Serum Glucose (% reduction): −1 ± 3%
  Serum Insulin (% reduction): −7 ± 3%
[1]; 10 mg/kg at 0, 24 and 48 h
  Serum Glucose (% reduction): 18 ± 6%
  Serum Insulin (% reduction): 1 ± 4%
[1]; 30 mg/kg at 0, 24 and 48 h
  Serum Glucose (% reduction): 14 ± 2%
  Serum Insulin (% reduction): 5 ± 4%
[1]; 100 mg/kg at 0, 24 and 48 h
  Serum Glucose (% reduction): 41 ± 6%
  Serum Insulin (% reduction): 6 ± 2.5%
[1]; [3]
  reduction of serum glucose relative to the vehicle treated groups (in words): significant reduction

## CNC(=O)CC1CN(Cc2cc(OC)cc(OC)c2)C(=O)[C@H](CC(C)C)N1C(=O)NC1CCCCC1 (stereo partly drawn) [Example 32, N-Methyl[1-cyclohexylcarbamoyl-4-(3,5-dimethoxybenzyl)-6-(S)-isobutyl-5-oxo-piperazin-2-yl]-acetamide]
[2]
  pEC50: 6.21

## CCCCNC(=O)CC1CN(Cc2cc(OC)cc(OC)c2)C(=O)[C@H](CC(C)C)N1C(=O)NC1CCCCC1 (stereo partly drawn) [Example 35, N-Butyl[1-cyclohexylcarbamoyl-4-(3 ,5-dimethoxybenzyl)-6-(S)-isobutyl-5-oxo-piperazin-2-yl]-acetamide]
[2]
  pEC50: 6.92

## CCCCNC(=O)C[C@@H]1CN(Cc2cc(OC)cc(OC)c2)C(=O)[C@H](CC(C)C)N1C(=O)NC1CCCCC1 [Example 36, N-Butyl (R)-[1-cyclohexylcarbamoyl-4-(3 5-dimethoxybenzyl)-6-(S)-isobutyl-5-oxo-piperazin-2-yl]-acetamide]
[1]; 1 mg/kg at 0, 24 and 48 h
  Serum Glucose (% reduction): −1 ± 2%
  Serum Insulin (% reduction): 8 ± 7%
[1]; 3 mg/kg at 0, 24 and 48 h
  Serum Glucose (% reduction): 0 ± 2%
  Serum Insulin (% reduction): −9 ± 2%
[1]; 10 mg/kg at 0, 24 and 48 h
  Serum Glucose (% reduction): −4 ± 7%
  Serum Insulin (% reduction): −9 ± 6%
[1]; 30 mg/kg at 0, 24 and 48 h
  Serum Glucose (% reduction): 37 ± 8%
  Serum Insulin (% reduction): 1 ± 2%
[1]; 30 mg/kg body weight, P<0.05, unpaired t test
  reduction of serum glucose relative to the vehicle treated groups (in words): significant reduction
[1]; 100 mg/kg at 0, 24 and 48 h
  Serum Glucose (% reduction): 40 ± 7%
  Serum Insulin (% reduction): 2 ± 4%
[1]; [3]
  reduction of serum glucose relative to the vehicle treated groups (in words): significant reduction

## CCCC[C@H]1C(=O)N(Cc2cc(OC)cc(OC)c2)CC(CC(=O)NC)N1C(=O)NC1CCCCC1 (stereo partly drawn) [Example 41, N-Methyl[1-cyclohexylcarbamoyl-4-(3,5-dimethoxybenzyl)-6-(S)-butyl-5-oxo-piperazin-2-yl]-acetamide]
[2]
  pEC50: 5.63

## CCNC(=O)CC1CN(Cc2cc(OC)cc(OC)c2)C(=O)[C@H](CC(C)C)N1C(=O)NC1CCCCC1 (stereo partly drawn) [Example 42, N-Ethyl[1-cyclohexylcarbamoyl-4-(3,5-dimethoxybenzyl)-6-(S)-isobutyl-5-oxo-piperazin-2-yl]-acetamide]
[2]
  pEC50: 6.60

## COc1cc(CN2CC(CC(=O)NCCO)N(C(=O)NC3CCCCC3)[C@@H](CC(C)C)C2=O)cc(OC)c1 (stereo partly drawn) [Example 43, N-(2-Hydroxyethyl)[1-cyclohexylcarbamoyl-4-(3,5-dimethoxybenzyl)-6-(S)-isobutyl-5-oxo-piperazin-2-yl]-acetamide]
[2]
  pEC50: < 6.00

## Cc1c(C)c2c(c(C)c1O)CCC(C)(COc1ccc(CC3SC(=O)NC3=O)cc1)O2 (centres unmarked) [troglitazone, reference compound]
[1]; 10 mg/kg at 0, 24 and 48 h
  Serum Glucose (% reduction): 25±2%
